In PubChem BioAssay AID2060495 (Molecular Pharmacology Branch, DTP, NCI, 2025):
pIC50: −log10 of the molar value.

System: 521955-158-R2-J5-PDC complex spheroid viability
Assay: Anticancer human tumor 521955-158-R2-J5-PDC patient-derived pancreatic carcinoma cell line growth inhibition [GQUAD]
Conditions: for pIC50: curve of first compound; for viability, T/C: stronger effect = lower value
Summary of the method: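 Multi-cell-type spheroids of tumor cells with HUVEC and mesenchymal stem cells, treated with drug combinations. Concentrations descend in half-log steps from near clinical Cmax, or from 10 microM where Cmax is unknown; viability read-out.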

[1] = second compound 0.0316 µM, first compound 0.0316 µM
[2] = second compound 0.0316 µM, first compound 0.1 µM
[3] = second compound 0.0316 µM, first compound 0.316 µM
[4] = second compound 0.0316 µM, first compound 1 µM
[5] = second compound 0.0316 µM, first compound 3.16 µM
[6] = second compound 0.0316 µM, first compound 10 µM
[7] = second compound 0.1 µM, first compound 0.0316 µM
[8] = second compound 0.1 µM, first compound 0.1 µM
[9] = second compound 0.1 µM, first compound 0.316 µM
[10] = second compound 0.1 µM, first compound 1 µM
[11] = second compound 0.1 µM, first compound 3.16 µM
[12] = second compound 0.1 µM, first compound 10 µM
[13] = second compound 0.316 µM, first compound 0.0316 µM
[14] = second compound 0.316 µM, first compound 0.1 µM
[15] = second compound 0.316 µM, first compound 0.316 µM
[16] = second compound 0.316 µM, first compound 1 µM
[17] = second compound 0.316 µM, first compound 3.16 µM
[18] = second compound 0.316 µM, first compound 10 µM
[19] = second compound 1 µM, first compound 0.0316 µM
[20] = second compound 1 µM, first compound 0.1 µM
[21] = second compound 1 µM, first compound 0.316 µM
[22] = second compound 1 µM, first compound 1 µM
[23] = second compound 1 µM, first compound 3.16 µM
[24] = second compound 1 µM, first compound 10 µM
[25] = second compound 3.16 µM, first compound 0.0316 µM
[26] = second compound 3.16 µM, first compound 0.1 µM
[27] = second compound 3.16 µM, first compound 0.316 µM
[28] = second compound 3.16 µM, first compound 1 µM
[29] = second compound 3.16 µM, first compound 3.16 µM
[30] = second compound 3.16 µM, first compound 10 µM
[31] = second compound 10 µM, first compound 0.0316 µM
[32] = second compound 10 µM, first compound 0.1 µM
[33] = second compound 10 µM, first compound 0.316 µM
[34] = second compound 10 µM, first compound 1 µM
[35] = second compound 10 µM, first compound 3.16 µM
[36] = second compound 10 µM, first compound 10 µM
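Also: spheroids exposed to agents for one week before reading.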
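For viability, T/C in this document: 100% = DMSO vehicle control viability.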

C=CC(=O)N1CCN(c2nc(=O)n(-c3c(C)ccnc3C(C)C)c3nc(-c4c(O)cccc4F)c(F)cc23)C(C)C1 (stereo unspecified) + Cc1[nH]c2ccc(F)cc2c1-c1nc2c3cccnc3c3ncccc3c2[nH]1
pIC50 (second compound 0.0316 µM): < 5.00 | pIC50 (second compound 0.1 µM): < 5.00 | pIC50 (second compound 0.316 µM): < 5.00 | pIC50 (second compound 1 µM): < 5.00 | pIC50 (second compound 3.16 µM): < 5.00 | pIC50 (second compound 10 µM): < 5.00 | viability, T/C [1]: 90.3% | viability, T/C [2]: 101% | viability, T/C [3]: 97.7% | viability, T/C [4]: 94.3% | viability, T/C [5]: 124% | viability, T/C [6]: 67.2% | viability, T/C [7]: 93% | viability, T/C [8]: 106% | viability, T/C [9]: 117% | viability, T/C [10]: 102% | viability, T/C [11]: 102% | viability, T/C [12]: 74.8% | viability, T/C [13]: 80.9% | viability, T/C [14]: 96.9% | viability, T/C [15]: 106% | viability, T/C [16]: 104% | viability, T/C [17]: 100% | viability, T/C [18]: 77.9% | viability, T/C [19]: 92.9% | viability, T/C [20]: 102% | viability, T/C [21]: 107% | viability, T/C [22]: 110% | viability, T/C [23]: 128% | viability, T/C [24]: 93.2% | viability, T/C [25]: 93.9% | viability, T/C [26]: 105% | viability, T/C [27]: 98% | viability, T/C [28]: 118% | viability, T/C [29]: 121% | viability, T/C [30]: 79.4% | viability, T/C [31]: 98.2% | viability, T/C [32]: 98.3% | viability, T/C [33]: 118% | viability, T/C [34]: 129% | viability, T/C [35]: 129% | viability, T/C [36]: 101%

CC1COCCN1c1cc(-c2ccnn2C)c2ccnc(-c3ccn[nH]3)c2n1 (stereo unspecified) + Cc1[nH]c2ccc(F)cc2c1-c1nc2c3cccnc3c3ncccc3c2[nH]1
pIC50 (second compound 0.0316 µM): 7.26 | pIC50 (second compound 0.1 µM): 7.28 | pIC50 (second compound 0.316 µM): 7.25 | pIC50 (second compound 1 µM): 7.23 | pIC50 (second compound 3.16 µM): 7.23 | pIC50 (second compound 10 µM): 7.27 | viability, T/C [1]: 81% | viability, T/C [2]: 16.8% | viability, T/C [3]: 10.3% | viability, T/C [4]: 13.1% | viability, T/C [5]: 18.4% | viability, T/C [6]: 18.2% | viability, T/C [7]: 73.7% | viability, T/C [8]: 20.6% | viability, T/C [9]: 8.98% | viability, T/C [10]: 12.4% | viability, T/C [11]: 18.1% | viability, T/C [12]: 18.8% | viability, T/C [13]: 84.4% | viability, T/C [14]: 16.7% | viability, T/C [15]: 13.3% | viability, T/C [16]: 12.7% | viability, T/C [17]: 18.5% | viability, T/C [18]: 19.8% | viability, T/C [19]: 90.1% | viability, T/C [20]: 16.1% | viability, T/C [21]: 9.88% | viability, T/C [22]: 11.1% | viability, T/C [23]: 19.8% | viability, T/C [24]: 21.6% | viability, T/C [25]: 88.1% | viability, T/C [26]: 15.8% | viability, T/C [27]: 9.58% | viability, T/C [28]: 11.2% | viability, T/C [29]: 21.6% | viability, T/C [30]: 25% | viability, T/C [31]: 77.7% | viability, T/C [32]: 16% | viability, T/C [33]: 10.9% | viability, T/C [34]: 15.9% | viability, T/C [35]: 19.3% | viability, T/C [36]: 24%

CC1COCCN1c1cc(C2(O)CC3CCC(C2)O3)c2cnn(-c3ccn[nH]3)c2n1 (stereo unspecified) + Cc1[nH]c2ccc(F)cc2c1-c1nc2c3cccnc3c3ncccc3c2[nH]1
pIC50 (second compound 0.0316 µM): > 7.50 | pIC50 (second compound 0.1 µM): > 7.50 | pIC50 (second compound 0.316 µM): > 7.50 | pIC50 (second compound 1 µM): > 7.50 | pIC50 (second compound 3.16 µM): > 7.50 | pIC50 (second compound 10 µM): > 7.50 | viability, T/C [1]: 32.6% | viability, T/C [2]: 10.8% | viability, T/C [3]: 13.3% | viability, T/C [4]: 19.7% | viability, T/C [5]: 19.2% | viability, T/C [6]: 8.74% | viability, T/C [7]: 32.5% | viability, T/C [8]: 11.2% | viability, T/C [9]: 12.6% | viability, T/C [10]: 19.3% | viability, T/C [11]: 20.1% | viability, T/C [12]: 8.59% | viability, T/C [13]: 28.1% | viability, T/C [14]: 11.6% | viability, T/C [15]: 12.2% | viability, T/C [16]: 16.5% | viability, T/C [17]: 20.5% | viability, T/C [18]: 7.43% | viability, T/C [19]: 34.3% | viability, T/C [20]: 10.7% | viability, T/C [21]: 12.4% | viability, T/C [22]: 17.4% | viability, T/C [23]: 22.9% | viability, T/C [24]: 10.7% | viability, T/C [25]: 38.7% | viability, T/C [26]: 10.7% | viability, T/C [27]: 13.9% | viability, T/C [28]: 22.5% | viability, T/C [29]: 25.4% | viability, T/C [30]: 8.16% | viability, T/C [31]: 29.5% | viability, T/C [32]: 10.6% | viability, T/C [33]: 15% | viability, T/C [34]: 20.7% | viability, T/C [35]: 26.7% | viability, T/C [36]: 6.74%
